Results: the Deep4Chem optical property database
Values belong to the molecule of their own block, whether it stands above or below them.

Experiment: solvent given as SMILES

Structure (SMILES): CCC1(CC)c2cc(B(c3c(C)cc(C)cc3C)c3c(C)cc(C)cc3C)ccc2-c2c1c1c(c3c2C(CC)(CC)c2cc(N(c4ccccc4)c4ccccc4)ccc2-3)C(CC)(CC)c2cc(B(c3c(C)cc(C)cc3C)c3c(C)cc(C)cc3C)ccc2-1
emission maximum (in C1CCOC1): 500 nm
emission maximum (in CC#N): 582 nm
emission maximum (in CC(C)=O): 550 nm
emission maximum (in CCCCCC): 421 nm
emission maximum (in CCCO): 501 nm
emission maximum (in CCO): 512 nm
emission maximum (in Cc1ccccc1): 444 nm
emission maximum (in ClC(Cl)Cl): 473 nm

emission maximum (in ClC(Cl)Cl): 456 nm
Structure (SMILES): O=c1oc2ccccc2cc1-c1cn2ccccc2n1

emission maximum (in CC#N): 501 nm
Structure (SMILES): N#C/C(=C\c1ccc(Cl)cc1)c1nc(-c2ccccc2)c(-c2ccccc2)s1

Structure (SMILES): CC(C)c1cccc(C(C)C)c1N1C(=O)c2cc(Oc3ccc(C(C)(C)C)cc3)c3c4c(Oc5ccc(C(C)(C)C)cc5)cc5c6c(cc(Oc7ccc(C(C)(C)C)cc7)c(c7c(Oc8ccc(C(C)(C)C)cc8)cc(c2c37)C1=O)c64)C(=O)N(c1c(C(C)C)cccc1C(C)C)C5=O
emission maximum (in Cc1ccccc1): 611 nm

emission maximum (in ClCCl): 407 nm
Structure (SMILES): C[Si]1(C)c2cc(C#Cc3ccccc3)ccc2C=Cc2ccc(C#Cc3ccccc3)cc21

emission maximum (in CC#N): 423 nm
emission maximum (in CCCCCC): 380 nm
Structure (SMILES): Nc1ccc(/C=C/c2ccccc2)cc1

Structure (SMILES): C(=C\c1cc(/C=C/c2ccc(-n3c4ccccc4c4ccccc43)cc2)cc(/C=C/c2ccc(-n3c4ccccc4c4ccccc43)cc2)c1)/c1ccc(-n2c3ccccc3c3ccccc32)cc1
emission maximum (in C1CCOC1): 403 nm
emission maximum (in CC#N): 429 nm
emission maximum (in Cc1ccccc1): 401 nm
emission maximum (in ClCCl): 419 nm

emission maximum (in ClC(Cl)Cl): 557 nm
Structure (SMILES): CCCCCCN1C(=O)c2cccc3cc(/N=C\c4ccc(N5CCOCC5)cc4)cc(c23)C1=O

emission maximum (in ClCCl): 358 nm
Structure (SMILES): c1ccc(-n2nc(-c3ccc(-c4ccc5c(c4)C(c4ccccc4)(c4ccccc4)c4ccccc4-5)cc3)nc2-c2ccccn2)cc1

emission maximum (in C1COCCO1): 526 nm
emission maximum (in CC#N): 641 nm
emission maximum (in ClCCl): 590 nm
Structure (SMILES): Cc1nc2ccc(/C=C/c3ccc(N(C)C)cc3)cc2nc1-c1ccccc1

emission maximum (in ClCCl): 417 nm
Structure (SMILES): CC(C)(C)c1ccc2c(c1)c1cc(C(C)(C)C)ccc1n2-c1ccc(-c2cccs2)s1

Structure (SMILES): CC[N+]1(CC)CN2C(=N1)C(C(=O)O)=Cc1cc(OC)c(OC)cc12
emission maximum (in O): 472 nm

emission maximum (in ClCCl): 557 nm
emission maximum (in c1ccccc1): 512 nm
Structure (SMILES): CCCCN(CCCC)c1ccc(C#Cc2cc(C#Cc3ccc(N(CCCC)CCCC)cc3)c(C#Cc3ccc(C#N)cc3)cc2C#Cc2ccc(C#N)cc2)cc1

Structure (SMILES): CC(C)(C)c1ccc(-c2nc3c4ccc(-c5ccccc5)cc4c4cc(-c5ccccc5)ccc4c3n2-c2ccc(C(C)(C)C)cc2)cc1
emission maximum (in C1CCOC1): 389 nm
emission maximum (in C1COCCO1): 389 nm
emission maximum (in CC#N): 391 nm
emission maximum (in CCCCCC): 385 nm
emission maximum (in CCCCOCCCC): 386 nm
emission maximum (in CCN(CC)CC): 386 nm
emission maximum (in CCOC(C)=O): 388 nm
emission maximum (in CCOCC): 386 nm
emission maximum (in CN(C)C=O): 392 nm
emission maximum (in Cc1ccccc1): 388 nm
emission maximum (in ClC=C(Cl)Cl): 389 nm
emission maximum (in ClCCl): 390 nm

Structure (SMILES): c1ccc(-c2nnc(-c3cc(-n4c5ccccc5c5ccccc54)c(-n4c5ccccc5c5ccccc54)cc3-c3nnc(-c4ccccc4)o3)o2)cc1
emission maximum (in CC#N): 525.15 nm
emission maximum (in Cc1ccccc1): 466 nm
emission maximum (in ClCCl): 500.52 nm

Structure (SMILES): Cc1ccc(-n2c3ccccc3c3cc(C(=C(C#N)C#N)c4ccccc4)ccc32)cc1
emission maximum (in C1CCOC1): 527 nm
emission maximum (in CC#N): 545 nm
emission maximum (in CC(C)=O): 567 nm
emission maximum (in CCOC(C)=O): 540 nm
emission maximum (in CO): 583 nm
emission maximum (in CS(C)=O): 591 nm
emission maximum (in Cc1ccccc1): 517 nm
emission maximum (in ClC(Cl)Cl): 546 nm

emission maximum (in ClCCl): 526 nm
Structure (SMILES): Fc1ccccc1-c1c2cc(Cl)ccc2nc2cc3ccccc3cc12

Structure (SMILES): O=[N+]([O-])c1ccc(C2=Nc3sc(-c4ccccc4)n[n+]3[B-](F)(F)O2)cc1
emission maximum (in Cc1ccccc1): 409 nm

Structure (SMILES): COC(=O)CN1C(=O)c2cc3ccc(N(C)C)cc3cc2C1=O
emission maximum (in C1CCOC1): 510 nm
emission maximum (in CC#N): 549 nm
emission maximum (in CC(C)=O): 532 nm
emission maximum (in CCO): 584 nm
emission maximum (in Cc1ccccc1): 491 nm
emission maximum (in ClC(Cl)Cl): 509 nm
